The subject of data set [1] is tg[Plp:EGFP] zebrafish embryos. The data set is described as follows: Oligodendrocyte development in tg[Plp:EGFP] zebrafish embryos. Type of data set: in vivo. Conditions: 1, 10 and 100 nM from 24 hpf, analysed at 72 hpf. As to the method: Transgenic-Proteolipid protein-enhanced green fluorescence protein (tg[plp:EGFP]) zebrafish was raised and maintained (Yoshida and Macklin, J. Neurosci Res, 81:1, 2005). Embryos were collected and staged by hour post fertilization (hpf). Compounds were added at 24 hpf stage at a concentration of 10 nM, 100 nM and 1 μM. After 48 hrs (72 hpf stage), zebrafish embryos were anesthetized in 0.02% tricaine, fixed in 4% paraformaldehyde, and washed in phosphate buffered saline (PBS). After treating with 10% Triton X-100 for 30 minutes, embryos were washed in PBS and blocked with 3% goat serum. Embryos were then incubated at 4° C. overnight with FITC-conjugated goat anti-GFP antibody (Abcam, Cambridge, Mass.) at a concentration of 1:1000. After several washes with PBS, the embryos were embedded in 100% glycerol and visualized on a Leica SP5 confocal microscope.
Embryos from transgenic-Plp-EGFP (tg[Plp:EGFP]) zebrafish were treated starting at 24 hours post fertilization (hpf) with compounds A, A-7 or B (1, 10 and 100 nM) or vehicle (DMSO). At 72 hpf effective treatments were analyzed by confocal microscopy after fixation and EGFP immunostaining of selected positive compounds.

For data set [2], the system named is oligodendrocyte progenitors. Nature of the data set: BrdU incorporation, proliferation of oligodendrocyte progenitors. Conditions: 10 nM, 48 h; Average±SEM; control 26.3±3.2; not statistically significant. The class given is cell-based, mouse. The method, then:
A feasible effect of small molecules on oligodendrocyte progenitor cells is the induction of proliferation. We studied this possibility by treating cultures of oligodendrocyte progenitors, previously exposed to compounds A, A-7 and B (10 nM, 48 h) with BrdU (Bromodeoxyuridine, 10 μM added 24 hrs before the end of the treatment) and posterior immunostaining to detect BrdU positive cells. This is a well established method to determine cell division and proliferation by incorporation of the […]. After counting BrdU positive oligodendrocytes versus total cells in three independent experiments we observed a slight tendency of increased proliferation in cells treated with compounds A, A-7 or B. However, there were not statistically significant differences between treated and control cells (control: 26.3±3.2; compound A: 29.2±4.0; compound A-7: 28,9±2.1; compound B: 27.6±6.7; Values are represented as Average±SEM).
Background: Uptake of a labelled nucleoside into DNA is a usual measure of proliferation.

Data set [3] has as its system Akt. The data set is described as follows: Akt activity in cell extracts of oligodendrocyte precursors (phosphorylation of Akt substrate GSKα/β). Conditions: 10 μM, 48 h. Type of data set: cell-based. From the text: Oligodendrocyte precursor differentiation requires the activation of a complex, highly controlled machinery that signals cells to stop migrating/proliferating and start extending processes and producing myelin components. A number of inducers and intracellular mediators of this process have been identified in vitro and in viva. […] Therefore, we studied whether our selected small molecules induced Akt signaling in oligodendrocyte precursors. We analyzed Akt activity in cell extracts of oligodendrocyte precursors treated with selected compounds (10 μM, 48 h), as determined by phosphorylation of Akt substrate GSKα/β.

Data set [4] concerns oligodendrocyte precursors. Nature of the data set: Oligodendrocyte precursor maturation after pre-incubation with PI3K, mTOR or Akt inhibitors (MBP immunostaining). Type of data set: cell-based. Conditions: 48 h treatment; for effect of Akt inhibitor on compound-induced differentiation: Akt 1/2 inhibitor 1 μM added 1 hr before; for effect of PI3K inhibition on compound-induced oligodendrocyte precursor maturation: wortmannin 0.1 μM added 1 hr before. As to the method:
Akt signaling has been extensively studied, and activation of phosphatidyl-inositol-3-kinase (PI3K) is generally accepted as a canonical upstream Akt activator. Downstream targets of Akt have also been identified and those include GSK, mTOR, p70SK, ASK amongst many others. In order to determine the relevance of […], signaling in the phosphorylation of Akt induced by compounds A and B and possible downstream targets of phosphorylated Akt, we pre-incubated the cells with inhibitors of PI3K (wortmannin, 0.1 μM), mTOR (rapamycin 0.1 μM) or a direct Akt ½ inhibitor (trifluoroacetate salt hydrate, 1 μM), all added 1 hr before the treatment with compounds A or B.
Cells were immunostained for MBP and after 48 h treatment with compound A or B the cells underwent morphology changes indicative of cell differentiation that included the generation of multiple cell processes and development of membranous structures.

Data set [5] is described as follows: Hydrophobicity. Type of data set: physicochemical.

Structures are written as SMILES. “Also recorded” adds a separate entry of the source.

Turning to `CCS(=O)(=O)N1CCN(C(=O)COc2ccc(-c3ccccc3)cc2)CC1` [Compound A, 1-[(4-biphenylyloxy)acetyl]-4-(ethylsulfonyl)piperazine], in data set [1], the “number of oligodendrocyte progenitor cells and fluorescence intensity in embryos” value is “clear increase; also recorded: increased accumulation of oligodendrocytes and enhanced differentiation”. Besides, the “BrdU positive oligodendrocytes versus total cells” value in data set [2] worked out at 29.2±4.0. The Akt phosphorylation entry in data set [3] is reported as “clearly detected”. In addition, in data set [4], the “effect of Akt inhibitor on compound-induced differentiation” value is “completely blocked” and the “effect of PI3K inhibition on compound-induced oligodendrocyte precursor maturation” value is recorded as “did not block”.

With `O=[N+]([O-])c1ccc(F)c(NS(=O)(=O)c2ccc(F)cc2)c1` [Compound B, 4-fluoro-N-(2-fluoro-5-nitrophenyl)benzenesulfonamide], the “BrdU positive oligodendrocytes versus total cells” value in data set [2] is listed as 27.6±6.7. The Akt phosphorylation entry in data set [3] is given as “clearly detected”. In data set [4], the “effect of Akt inhibitor on compound-induced differentiation” value is reported as “completely blocked” and the “effect of PI3K inhibition on compound-induced oligodendrocyte precursor maturation” value is listed as “did not block”. In data set [4] (rapamycin 0.1 μM added 1 hr before), the “effect of mTOR inhibition on compound-induced oligodendrocyte precursor maturation” value was “totally avoided”.

As for `CC(C)N1CCN(C(=O)COc2ccc(-c3ccccc3)cc2)CC1` [Compound A-7, 1-(Biphenyl-4-yloxy)acetyl-4-isopropylpiperazine], the “number of oligodendrocyte progenitor cells and fluorescence intensity in embryos” value in data set [1] is “clear increase; also recorded: increased accumulation of oligodendrocytes and enhanced differentiation”. Besides, the hydrophobicity result in data set [5] is “high”.

(Values after patent US20120172375A1, “COMPOUNDS AND METHODS OF PROMOTING OLIGODENDROCYTE PRECURSOR DIFFERENTIATION” (priority 2008, published 2012).)
